How the values were obtained:
[1] = previous reports; cited from earlier work

From the text for HLA-DQA1*0201: The confirmatory study also offered a means to evaluate the specificity of the lapatanib effect by assessment of the letrozole-only arm in the same trial.

Structure (SMILES) | type of liver injury [1] | DQA1*0201 carriage in ALT cases (HLA-DQA1*0201; letrozole-only comparator treatment arm (3/11)) | DQA1*0201 carriage in ALT controls (HLA-DQA1*0201; letrozole-only comparator treatment arm (40/159)) | cumulative incidence of ALT elevation, DQA1*0201 carriers compared with non-carriers (HLA-DQA1*0201; letrozole-only treated patients, FIG. 3)
CC1(C)S[C@@H]2[C@H](NC(=O)[C@H](N)c3ccc(O)cc3)C(=O)N2[C@H]1C(=O)O [Amoxicillin] | cholestatic | – | – | –
Cc1onc(-c2c(F)cccc2Cl)c1C(=O)N[C@@H]1C(=O)N2[C@@H]1SC(C)(C)[C@@H]2C(=O)O [flucloxacillin] | cholestatic | – | – | –
N#Cc1ccc(C(c2ccc(C#N)cc2)n2cncn2)cc1 [letrozole, 4-[(4-cyanophenyl)-(1,2,4-triazol-1-yl)methyl]benzonitrile] | – | 27% | 25% | did not differ
